The NIST ThermoML archive (doi:10.1016/j.jct.2015.12.025)

Experiments:
[1] = refractive index (Na D-line) (dimensionless); xn = mol fraction of the nth substance listed; conditions: 102 kPa, Liquid, Standard Abbe refractometry
[2] = xn = mol fraction of the nth substance listed; conditions: 102 kPa, Liquid, Vibrating tube method

C[Si]1(CCC(F)(F)F)O[Si](C)(CCC(F)(F)F)O[Si](C)(CCC(F)(F)F)O1 (stereo not given) + O=[N+]([O-])c1ccccc1
Conditions	mass density, 308.15 K [kg/m3]	mass density, 313.15 K [kg/m3]	mass density, 318.15 K [kg/m3]	mass density, 323.15 K [kg/m3]	refractive index, 308.15 K	refractive index, 313.15 K	refractive index, 318.15 K	refractive index, 323.15 K
[1], x1 = 0.05	–	–	–	–	1.51601	1.51362	1.51123	1.50882
[1], x1 = 0.0999	–	–	–	–	1.49288	1.49054	1.48816	1.48586
[1], x1 = 0.1499	–	–	–	–	1.47398	1.47168	1.46935	1.46705
[1], x1 = 0.1919	–	–	–	–	1.46058	1.4583	1.45605	1.45377
[1], x1 = 0.2499	–	–	–	–	1.44494	1.4427	1.44048	1.43827
[1], x1 = 0.2999	–	–	–	–	1.43355	1.43137	1.42916	1.42695
[1], x1 = 0.3501	–	–	–	–	1.42369	1.42151	1.41931	1.41713
[1], x1 = 0.3999	–	–	–	–	1.41513	1.41296	1.41082	1.40865
[1], x1 = 0.4499	–	–	–	–	1.40755	1.4054	1.40325	1.40109
[1], x1 = 0.5008	–	–	–	–	1.4007	1.39858	1.39644	1.39433
[1], x1 = 0.55	–	–	–	–	1.39478	1.3927	1.39053	1.38845
[1], x1 = 0.6001	–	–	–	–	1.38938	1.38728	1.38519	1.3831
[1], x1 = 0.6501	–	–	–	–	1.38448	1.38239	1.38032	1.37824
[1], x1 = 0.6997	–	–	–	–	1.38006	1.378	1.37594	1.37384
[1], x1 = 0.75	–	–	–	–	1.376	1.37391	1.37188	1.36984
[1], x1 = 0.8002	–	–	–	–	1.37227	1.37021	1.36817	1.36612
[1], x1 = 0.8498	–	–	–	–	1.36887	1.36681	1.36478	1.36274
[1], x1 = 0.9002	–	–	–	–	1.36567	1.36365	1.36163	1.35959
[1], x1 = 0.9492	–	–	–	–	1.36284	1.36084	1.35878	1.35679
[1], x1 = 1	–	–	–	–	1.36011	1.35808	1.35609	1.35407
[2], x1 = 0.05	1199.58	1194.53	1189.25	1184.09	–	–	–	–
[2], x1 = 0.0999	1207.93	1202.66	1197.26	1191.9	–	–	–	–
[2], x1 = 0.1499	1214.25	1208.83	1203.23	1197.73	–	–	–	–
[2], x1 = 0.1919	1218.36	1212.79	1207.17	1201.58	–	–	–	–
[2], x1 = 0.2499	1222.85	1217.11	1211.37	1205.62	–	–	–	–
[2], x1 = 0.2999	1225.81	1220.01	1214.12	1208.26	–	–	–	–
[2], x1 = 0.3501	1228.12	1222.19	1216.28	1210.32	–	–	–	–
[2], x1 = 0.3999	1229.99	1224	1218.01	1211.97	–	–	–	–
[2], x1 = 0.4499	1231.5	1225.36	1219.29	1213.19	–	–	–	–
[2], x1 = 0.5008	1232.67	1226.56	1220.4	1214.21	–	–	–	–
[2], x1 = 0.55	1233.65	1227.39	1221.21	1215	–	–	–	–
[2], x1 = 0.6001	1234.37	1228.07	1221.84	1215.54	–	–	–	–
[2], x1 = 0.6501	1234.9	1228.58	1222.33	1216	–	–	–	–
[2], x1 = 0.6997	1235.32	1229.04	1222.69	1216.31	–	–	–	–
[2], x1 = 0.75	1235.76	1229.34	1222.98	1216.56	–	–	–	–
[2], x1 = 0.8002	1236.01	1229.55	1223.17	1216.72	–	–	–	–
[2], x1 = 0.8498	1236.19	1229.72	1223.28	1216.78	–	–	–	–
[2], x1 = 0.9002	1236.26	1229.82	1223.34	1216.83	–	–	–	–
[2], x1 = 0.9492	1236.47	1229.88	1223.44	1216.88	–	–	–	–
[2], x1 = 1	1236.63	1230.05	1223.55	1216.99	–	–	–	–
